Data published in patent US8481501B2 (priority 2004, dated 2013).

What was measured:
[1] = target: T1, kappa opioid receptor (Homo sapiens, UniProt P41145); experiment: biochemical; assay type: binding; parameters: expressed in transfected cells; host or cells: transfected cells; conditions: Table 7, CHO membranes; for Ki: read-out: Ki kappa
[2] = target: T2, delta opioid receptor (Homo sapiens, UniProt P41143); experiment: Stimulation of [35S]GTPγS binding (coupling to G proteins); assay type: biochemical; parameters: expressed in transfected cells; host or cells: transfected cells; conditions: for Emax / EC50: Table 8; for EC50: read-out: delta EC50
[3] = target: T2, delta opioid receptor; experiment: Ke at delta, CHO membranes; assay type: biochemical; parameters: expressed in transfected cells; host or cells: CHO; conditions: Table 7, CHO membranes
[4] = target: T1, kappa opioid receptor; experiment: biochemical; assay type: biochemical; parameters: expressed in transfected cells; host or cells: transfected cells; conditions: for Emax / EC50: Table 8; for Emax: read-out: kappa % stimulation; for EC50: read-out: kappa EC50
[5] = target: T2, delta opioid receptor; experiment: biochemical; assay type: binding; parameters: expressed in transfected cells; host or cells: transfected cells; conditions: Table 7, CHO membranes; for Ki: read-out: Ki delta
[6] = system: adult male rats; experiment: Precipitation of somatic signs of withdrawal after acute morphine; assay type: in vivo, rat; conditions: s.c., 4 hr after morphine 5.0 mg/kg
[7] = target: T1, kappa opioid receptor; experiment: Ke at kappa, CHO membranes; assay type: biochemical; parameters: expressed in transfected cells; host or cells: CHO; conditions: Table 7, CHO membranes

T1 sequence (P41145 whole entry): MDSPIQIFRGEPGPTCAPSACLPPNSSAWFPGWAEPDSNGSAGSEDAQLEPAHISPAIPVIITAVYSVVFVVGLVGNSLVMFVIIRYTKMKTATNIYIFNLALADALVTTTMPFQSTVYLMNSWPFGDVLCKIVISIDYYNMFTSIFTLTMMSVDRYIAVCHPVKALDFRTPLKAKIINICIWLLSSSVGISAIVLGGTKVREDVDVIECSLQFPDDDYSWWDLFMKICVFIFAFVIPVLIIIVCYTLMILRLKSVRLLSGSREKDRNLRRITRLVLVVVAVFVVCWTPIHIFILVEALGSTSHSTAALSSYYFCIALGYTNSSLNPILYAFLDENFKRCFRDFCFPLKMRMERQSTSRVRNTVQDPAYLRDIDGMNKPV
T2 sequence (P41143 whole entry): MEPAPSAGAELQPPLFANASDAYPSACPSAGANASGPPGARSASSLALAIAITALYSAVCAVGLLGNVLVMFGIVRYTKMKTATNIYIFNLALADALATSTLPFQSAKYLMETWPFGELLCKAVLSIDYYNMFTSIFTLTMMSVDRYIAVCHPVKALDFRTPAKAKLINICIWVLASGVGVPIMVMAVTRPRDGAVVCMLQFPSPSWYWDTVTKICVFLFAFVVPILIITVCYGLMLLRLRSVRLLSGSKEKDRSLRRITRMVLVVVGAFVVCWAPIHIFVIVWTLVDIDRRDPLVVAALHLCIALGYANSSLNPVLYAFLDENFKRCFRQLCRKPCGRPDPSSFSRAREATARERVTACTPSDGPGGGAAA

SMILES	Ki kappa [1]	Ki [1] [µM]	Emax [2] [%]	EC50 [2] [µM]	Ke(other) (delta) [3]	Emax [4] [%]	EC50 [4] [µM]	Ki delta [5]	Ki [5] [µM]	approximate EC50 for precipitation of somatic signs of withdrawal [6]	Ke(other) (kappa) [7]	agonist/antagonist character at the delta receptor ([2]; based on [35S]GTPγS binding)	agonist/antagonist character at the kappa receptor ([4]; based on [35S]GTPγS binding)
O=C(C[C@@H]1O[C@H](COCc2ccccc2)[C@@H](OCc2ccccc2)[C@H](OCc2ccccc2)[C@H]1OCc1ccccc1)NC1CC[C@@]2(O)[C@H]3Cc4ccc(O)c5c4[C@@]2(CCN3CC2CC2)[C@H]1O5 (stereo partly drawn) [compound 5, 6-acetamido-2,3,4,6-tetra-O-benzyl-D-glucopyranosyl-14-Hydroxy-17-(cyclopropylmethyl)nordesmorphine]	moderate affinity	0.039 ± 0.0063	20.5	0.107	10.35 ± 2.01	45.5	0.0108	low affinity	0.14 ± 0.0139				
O=C(CC1OC(CO)C(O)C(O)C1O)NC1CCC2(O)C3Cc4ccc(O)c5c4C2(CCN3CC2CC2)C1O5 (stereo not drawn) [6a, 14-Hydroxy-17-(cyclopropylmethyl)nordesmorphine-6-acetamidoglucose]	moderate affinity	0.0104 ± 0.0028	43.1	0.0909		11	0.0112	moderate affinity	0.0913 ± 0.0038	approximately 1 mg/kg	13.39 ± 1.51	partial agonist	strong antagonist
